Experimental data taken from patent US6982283B2, “Method for treating drug-induced constipation” (Sucampo AG, priority 2001, dated 2006).
Counter-ions that a name gives are not always drawn. Marks after values point to notes of the source that are not given here.

Tests used:
Format in all cases: in vivo
Male ICR mice [1] = test: Antagonism to morphine-induced constipation: graphite marker in the caecum; conditions: for Effect on morphine-induced constipation: at the clinical daily dosage and at 10 times of the clinical daily dosage
Male ICR mice [2] = test: Antagonism to imipramine-induced constipation: carbon marker in the caecum
Procedure: Male ICR mice were fasted overnight in wire-bottomed cages to prevent coprophagia, and 10 mice were used for each group. Imipramine hydrochloride (Wako Pure Chemical Industries, Ltd., Osaka, Japan) at 60 mg/kg was injected intraperitoneally to the animals. Immediately after the imipramine-injection, 0.1 mL of carbon marker (10% carbon powder suspension in 5% gum Arabic) and vehicle (physiological saline solution containing 0.01% polysorbate 80 and 0.5% ethanol) or test substance (13,14-dihydro-15-keto-16,16-difluoro-PGE1) in an administration volume of 5 mL/kg were orally administered. A normal control group received carbon marker and vehicle in the above volume orally without the imipramine-injection. One hundred and fifty minutes after the administration of carbon marker, animals were sacrificed by cervical dislocation, and examined the caecum for the presence of carbon marker. It was judged as a positive response when carbon marker was found in the caecum (positive scores).
The effect to the imipramine-induced constipation was evaluated on the cathartic (sennoside) clinically used for the treatment of the constipation in patients. Preparation and dose levels of sennoside were the same as described in example 2. The experimental procedure was the same as described in example 4.

Male ICR mice [3] = test: Effect on analgesic action of morphine: tail-pinch response time
Procedure: Male ICR mice were fasted overnight in wire-bottomed cages to prevent coprophagia. The tail of the animal was pinched with clamp forceps, and the response time from the tail-pinch to fierce striking, biting or crying was measured. 18 mice whose response time of 2 second or shorter were used as test animals. […] Immediately after the morphine-injection, vehicle (physiological saline containing 0.01% polysorbate 80 and 0.5% ethanol) or 1, 10, or 100 μg/kg test substance (13,14-dihydro-15-keto-16,16-difluoro-PGE1) dissolved in the vehicle was administered orally in an administration volume of 5 mL/kg. The animals of normal control group received vehicle orally in the above volume without morphine-injection.
The response time of each animal following tail-pinch was measured 30, 60, 90, 120 and 150 minutes after the administration. If a mouse took longer than 10 seconds to respond, measurement was stopped to avoid injuring the tail tissue, and the response time was recorded as 10 second.

[4] = morphine 5 mg/kg i.p. + sennoside 0.48 mg/kg, 150 min after graphite marker
[5] = morphine 5 mg/kg i.p. + sennoside 4.8 mg/kg, 150 min after graphite marker
[6] = imipramine 60 mg/kg i.p. + sennoside 0.48 μg/kg, 150 min after carbon marker
[7] = imipramine 60 mg/kg i.p. + sennoside 4.8 μg/kg, 150 min after carbon marker
[8] = imipramine 60 mg/kg i.p. + vehicle orally, Example 4, Table 5
[9] = imipramine 60 mg/kg i.p. + vehicle, Example 5, Table 6
[10] = imipramine 60 mg/kg i.p. + test substance 10 μg/kg orally, 150 min after carbon marker
[11] = imipramine 60 mg/kg i.p. + test substance 100 μg/kg orally, 150 min after carbon marker
[12] = morphine 5 mg/kg i.p. + sodium picosulfate 0.15 mg/kg, 150 min after graphite marker
[13] = morphine 5 mg/kg i.p. + sodium picosulfate 1.5 mg/kg, 150 min after graphite marker

Sennoside
Effect on morphine-induced constipation (Male ICR mice [1]): no effect
Number of animals with positive scores/Number of animals tested (Male ICR mice [1]; [4]): 2/10
Ratio of animals with positive scores (Male ICR mice [1]; [4]): 20%
Number of animals with positive scores/Number of animals tested (Male ICR mice [1]; [5]): 2/10
Ratio of animals with positive scores (Male ICR mice [1]; [5]): 20%
Effect on the imipramine-induced constipation (Male ICR mice [2]; Example 5, results of Table 6): no effect
Number of animals with positive scores/Number of animals tested (Male ICR mice [2]; [6]): 2/10
Ratio of animals with positive scores (Male ICR mice [2]; [6]): 20%
Number of animals with positive scores/Number of animals tested (Male ICR mice [2]; [7]): 2/10
Ratio of animals with positive scores (Male ICR mice [2]; [7]): 20%

CN1CC[C@]23c4c5ccc(O)c4O[C@H]2[C@@H](O)C=C[C@H]3[C@H]1C5.Cl [Morphine, Morphine hydrochloride, reference compound]
Response time, mean ± S.E. (Male ICR mice [3]; morphine 5 mg/kg i.p. + vehicle orally, 30 min after administration): 2.8 ± 0.6 s
Response time, mean ± S.E. (Male ICR mice [3]; morphine 5 mg/kg i.p. + vehicle orally, 60 min after administration): 1.9 ± 0.3 s
Response time, mean ± S.E. (Male ICR mice [3]; morphine 5 mg/kg i.p. + vehicle orally, 90 min after administration): 1.8 ± 0.4^+ sec.
Response time, mean ± S.E. (Male ICR mice [3]; morphine 5 mg/kg i.p. + vehicle orally, 120 min after administration): 1.4 ± 0.2 s
Response time, mean ± S.E. (Male ICR mice [3]; morphine 5 mg/kg i.p. + vehicle orally, 150 min after administration): 1.2 ± 0.1 s
Response time, mean ± S.E. (Male ICR mice [3]; morphine 5 mg/kg i.p. + vehicle orally, before administration): 1.0 ± 0.1 s
Number of animals with positive scores/Number of animals tested (Male ICR mice [1]; morphine 5 mg/kg i.p. + vehicle (0.5% tragacanth solution), Example 2, Table 2): 2/10
Number of animals with positive scores/Number of animals tested (Male ICR mice [1]; morphine 5 mg/kg i.p. + vehicle (physiological saline), Example 2, Table 3): 3/10
Number of animals with positive scores/Number of animals tested (Male ICR mice [1]; morphine 5 mg/kg i.p. + vehicle (saline, 0.01% polysorbate 80, 0.5% ethanol) orally, Example 1, Table 1): 3
Number of animals with positive scores/Number of animals tested (Male ICR mice [1]; morphine 5 mg/kg i.p. + vehicle (saline, 0.01% polysorbate 80, 0.5% ethanol) orally, Example 1, Table 1, hydrochloride): 3/15

CN(C)CCCN1c2ccccc2CCc2ccccc21 [Imipramine, Imipramine hydrochloride]
Number of animals with positive scores/Number of animals tested (Male ICR mice [2]; [8]): 1/10
Ratio of animals with positive scores (Male ICR mice [2]; [8]): 10%
Number of animals with positive scores/Number of animals tested (Male ICR mice [2]; [9]): 1/10
Ratio of animals with positive scores (Male ICR mice [2]; [9]): 10%

CCCCC(F)(F)C(=O)CCC1C(O)CC(=O)C1CCCCCCC(=O)O (centres unmarked) [test substance, 13,14-dihydro-15-keto-16,16-difluoro-PGE1]
Response time, mean ± S.E. (Male ICR mice [3]; morphine 5 mg/kg i.p. + test substance 1 μg/kg orally, 30 min after administration): 3.2 ± 0.7 s
Response time, mean ± S.E. (Male ICR mice [3]; morphine 5 mg/kg i.p. + test substance 1 μg/kg orally, 60 min after administration): 2.3 ± 0.6^+ sec.
Response time, mean ± S.E. (Male ICR mice [3]; morphine 5 mg/kg i.p. + test substance 1 μg/kg orally, 90 min after administration): 1.5 ± 0.2 s
Response time, mean ± S.E. (Male ICR mice [3]; morphine 5 mg/kg i.p. + test substance 1 μg/kg orally, 120 min after administration): 1.3 ± 0.1 s
Response time, mean ± S.E. (Male ICR mice [3]; morphine 5 mg/kg i.p. + test substance 1 μg/kg orally, 150 min after administration): 1.3 ± 0.1 s
Response time, mean ± S.E. (Male ICR mice [3]; morphine 5 mg/kg i.p. + test substance 1 μg/kg orally, before administration): 1.0 ± 0.1 s
Response time, mean ± S.E. (Male ICR mice [3]; morphine 5 mg/kg i.p. + test substance 10 μg/kg orally, 30 min after administration): 3.4 ± 0.5 s
Response time, mean ± S.E. (Male ICR mice [3]; morphine 5 mg/kg i.p. + test substance 10 μg/kg orally, 60 min after administration): 1.8 ± 0.2 s
Response time, mean ± S.E. (Male ICR mice [3]; morphine 5 mg/kg i.p. + test substance 10 μg/kg orally, 90 min after administration): 1.4 ± 0.1 s
Response time, mean ± S.E. (Male ICR mice [3]; morphine 5 mg/kg i.p. + test substance 10 μg/kg orally, 120 min after administration): 1.3 ± 0.1 s
Response time, mean ± S.E. (Male ICR mice [3]; morphine 5 mg/kg i.p. + test substance 10 μg/kg orally, 150 min after administration): 1.2 ± 0.1 s
Response time, mean ± S.E. (Male ICR mice [3]; morphine 5 mg/kg i.p. + test substance 10 μg/kg orally, before administration): 1.0 ± 0.1 s
Response time, mean ± S.E. (Male ICR mice [3]; morphine 5 mg/kg i.p. + test substance 100 μg/kg orally, 30 min after administration): 2.9 ± 0.6 s
Response time, mean ± S.E. (Male ICR mice [3]; morphine 5 mg/kg i.p. + test substance 100 μg/kg orally, 60 min after administration): 1.8 ± 0.3 s
Response time, mean ± S.E. (Male ICR mice [3]; morphine 5 mg/kg i.p. + test substance 100 μg/kg orally, 90 min after administration): 1.5 ± 0.1 s
Response time, mean ± S.E. (Male ICR mice [3]; morphine 5 mg/kg i.p. + test substance 100 μg/kg orally, 120 min after administration): 1.2 ± 0.1 s
Response time, mean ± S.E. (Male ICR mice [3]; morphine 5 mg/kg i.p. + test substance 100 μg/kg orally, 150 min after administration): 1.3 ± 0.1 s
Response time, mean ± S.E. (Male ICR mice [3]; morphine 5 mg/kg i.p. + test substance 100 μg/kg orally, before administration): 1.0 ± 0.1 s
Effect on the analgesic action of morphine (Male ICR mice [3]; test substance 1, 10 or 100 μg/kg orally, compared with morphine+vehicle group): did not affect
Ratio of animals with positive scores (Male ICR mice [1]; morphine 5 mg/kg i.p. + test substance 1 μg/kg orally, 150 min after graphite marker): 60%
Ratio of animals with positive scores (Male ICR mice [1]; morphine 5 mg/kg i.p. + test substance 10 μg/kg orally, 150 min after graphite marker): 87%
Ratio of animals with positive scores (Male ICR mice [1]; morphine 5 mg/kg i.p. + test substance 100 μg/kg orally, 150 min after graphite marker): 93%
Antagonism of morphine-induced constipation compared with control (morphine+vehicle) group (Male ICR mice [1]; test substance 1, 10 or 100 μg/kg orally immediately after morphine): significantly antagonized
Number of animals with positive scores/Number of animals tested (Male ICR mice [2]; [10]): 3/10
Ratio of animals with positive scores (Male ICR mice [2]; [10]): 30%
Number of animals with positive scores/Number of animals tested (Male ICR mice [2]; [11]): 7/10**
Ratio of animals with positive scores (Male ICR mice [2]; [11]): 70%

O=S(=O)(O)Oc1ccc(C(c2ccc(OS(=O)(=O)O)cc2)c2ccccn2)cc1 [sodium picosulfate, Sodium picosulfate]
Effect on morphine-induced constipation (Male ICR mice [1]): no effect
Number of animals with positive scores/Number of animals tested (Male ICR mice [1]; [12]): 3/10
Ratio of animals with positive scores (Male ICR mice [1]; [12]): 30%
Number of animals with positive scores/Number of animals tested (Male ICR mice [1]; [13]): 4/10
Ratio of animals with positive scores (Male ICR mice [1]; [13]): 40%
